This is an account of results in publication PMC8808171, “Nonselective TRPC channel inhibition and suppression of aminoglycoside-induced premature termination codon readthrough by the small molecule AC1903” (The Journal of Biological Chemistry, 2022).

The subject of one experiment is JEB01 keratinocytes. The experiment is described as follows: Measurement of intracellular G418 (gentamicin ELISA) in JEB01 keratinocytes. It is filed as cell-based, human. As to conditions: 150 μM AC1903 (Fig. 2F). As to the method:
Figure 2 Effect of AC1903 on PTC readthrough and G418 trafficking.A and B, DMS-114 (A) or TC-71 (B) cells were pretreated with indicated concentrations of AC1903 for 3 h followed by exposure to 400 μg/ml G418. After 3 h medium was replenished and at 24 h cell lysates were prepared and p53 levels were measured. C and E, DMS-114 (C) or JEB01 (E) cells were either left untreated or pretreated with 150 μM AC1903 for 3 h followed by exposure to indicated concentrations of G418 for another 3 h. At 24 h cell lysates were prepared and p53 (C) or Collagen XVII (E) levels were measured. In panels A–C, protein levels were measured by automated capillary electrophoresis Western analysis (using vinculin as loading control). In panel E, protein levels were measured by Western blot (using beta-actin as loading control). […] D, total intracellular levels of G418 were measured in the same lysates as in (C) (n = 5; data normalized to the highest response in each experiment; bars represent mean ± SD). F, total intracellular levels of G418 were measured in the same lysates as in (E) (n = 2; data normalized to the highest response in each experiment; bars represent mean ± SD). ∗ indicates statistically significant difference between samples according to one-way ANOVA (p < 0.05). […]

The target in a further experiment is T1, TRPV4:V4 (Homo sapiens, UniProt Q9HBA0).
T1 construct: expressed in transfected cells
T1 sequence (Q9HBA0 whole entry): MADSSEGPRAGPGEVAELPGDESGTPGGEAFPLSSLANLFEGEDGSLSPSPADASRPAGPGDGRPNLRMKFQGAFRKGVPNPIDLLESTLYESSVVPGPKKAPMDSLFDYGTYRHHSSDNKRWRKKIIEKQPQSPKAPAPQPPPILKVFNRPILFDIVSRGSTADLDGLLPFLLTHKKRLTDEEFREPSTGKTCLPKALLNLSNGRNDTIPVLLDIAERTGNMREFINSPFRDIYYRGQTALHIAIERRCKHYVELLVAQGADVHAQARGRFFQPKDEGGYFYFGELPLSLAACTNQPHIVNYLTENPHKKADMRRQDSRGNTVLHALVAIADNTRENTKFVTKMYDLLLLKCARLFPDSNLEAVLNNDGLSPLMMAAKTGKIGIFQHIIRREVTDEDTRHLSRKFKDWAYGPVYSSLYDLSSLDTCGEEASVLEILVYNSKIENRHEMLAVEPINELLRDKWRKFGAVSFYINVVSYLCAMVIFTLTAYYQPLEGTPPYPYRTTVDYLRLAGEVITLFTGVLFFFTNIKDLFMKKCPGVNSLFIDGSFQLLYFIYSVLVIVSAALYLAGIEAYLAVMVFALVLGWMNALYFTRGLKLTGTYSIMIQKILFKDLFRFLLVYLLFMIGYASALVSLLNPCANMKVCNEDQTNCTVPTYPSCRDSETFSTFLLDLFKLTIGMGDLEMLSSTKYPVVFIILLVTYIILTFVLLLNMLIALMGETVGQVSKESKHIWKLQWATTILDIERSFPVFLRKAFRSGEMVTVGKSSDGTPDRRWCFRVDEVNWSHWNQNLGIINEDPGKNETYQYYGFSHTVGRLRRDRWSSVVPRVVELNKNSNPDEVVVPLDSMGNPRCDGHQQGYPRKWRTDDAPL
The experiment can be described thus: [Ca2+]i recordings (Fura-2), TRPV4:V4 in CHO cells. It is filed as cell-based. As to conditions: activator 4α-PDD. The method, then: Based on the findings described above, we wondered whether AC1903—which is typically used as a TRPC5 inhibitor at concentrations of 30–100 μM in cellular assays ([29], [56])—might have limited selectivity for TRPC5 channels and whether its effect on intracellular G418 levels and PTC readthrough might be the consequence of inhibition of other or multiple targets. All well-characterized TRPC channel inhibitors reported to date modulate multiple TRP(C) channels ([34], [35], [36]). […] Because limited data for the selectivity of AC1903 are available in the public domain, we decided to profile AC1903 against a selection of calcium-permeable cation channels by intracellular calcium ([Ca^2+]i) recordings using well-characterized cell lines and TRP channel activators ([46], [57], [58]), and the Ca^2+ indicator Fura-2. In these assays, cells (HEK 293, HEK T-REx, or CHO) overexpressing the relevant ion channel protein and loaded with Fura-2 AM (a cell-permeable precursor of Fura-2) were preincubated with various concentrations of AC1903 or vehicle (DMSO) for 30 min. Then, changes in ratiometric fluorescence (from background) were recorded upon addition of the respective ion channel activator. […]

The test system of a further experiment is standard kinase panel. On the set-up: method as in PMID 29217578. As to conditions: cited from earlier work.

For orientation: IC50 means the concentration that inhibits the measured activity by half. Read a low IC50 as greater potency. One may read the Hill slope as a measure of the steepness of the concentration-response curve.

SMILES strings stand for the structures.

`c1ccc(Cn2c(NCc3ccco3)nc3ccccc32)cc1` [AC1903]: the “intracellular G418 levels in cells exposed to AC1903” value with JEB01 keratinocytes is listed as “significantly declined”. The same compound displayed an IC50 at TRPV4:V4 (CHO) of 19 µM. Further, on TRPV4:V4, the Hill slope is given as -1.7. The “off-target effects in a standard kinase panel” value in the experiment on standard kinase panel was “no off-target effects were found”.
